Experimental data taken from ChEMBL document CHEMBL1125575, “2-[(2-pyridylmethyl)sulfinyl]-1H-thieno[3,4-d]imidazoles. A novel class of gastric H+/K(+)-ATPase inhibitors” (J Med Chem, 1992).

What was measured:
[1] = animal or person; conditions: Canis lupus familiaris, Stomach, iv, read-out: Inhibition
[2] = target: Potassium-transporting ATPase alpha chain 1 (Sus scrofa, UniProt P19156)
Description: In vitro inhibitory concentration against H+/K+ ATPase from pig stomach by probit analysis

[3] = species on record: Rattus norvegicus; assay: animal or person; conditions: Stomach, iv, read-out: Inhibition
[4] = species on record: Oryctolagus cuniculus; assay: cells; type: functional, organism-based, Stomach
Description: In vitro inhibition of 14C amino-pyrine uptake was determined in isolated rabbit gastric glands after dbcAMP stimulation

[5] = species on record: Canis familiaris; assay: animal or person; conditions: Canis lupus familiaris, Stomach, intraduodenal, read-out: Inhibition
[6] = target: Potassium-transporting ATPase alpha chain 1 (Sus scrofa) (UniProt P19156); assay: Inhibition of H+/K+ ATPase from pig stomach; type: tissue-based; conditions: concentration not given here
[7] = tested on: Rattus norvegicus; assay: In vivo inhibition of gastric acid secretion was calculated in stomach-lumen perfused rat after iv administration of drug at a dose of 5 mg/kg; type: functional
[8] = tested on: Canis familiaris; assay: In vivo inhibition of gastric acid secretion was calculated in heidenhain-pouch dog after iv administration of the drug at a dose of 0.5 mg/kg; type: functional; conditions: Canis lupus familiaris, Stomach
[9] = species on record: Canis familiaris; assay: animal or person; conditions: Canis lupus familiaris, iv
[10] = physchem
Description: pKa value of the compound

[11] = species on record: Oryctolagus cuniculus; assay: In vitro inhibition of 14C amino pyrine uptake was determined in isolated rabbit gastric glands after dbcAMP stimulation; type: functional; conditions: Stomach
[12] = Chemical stability at pH 2.0; type: physicochemical; conditions: buffer
[13] = Chemical stability at pH 5.0; type: physicochemical; conditions: buffer
[14] = Chemical stability at pH 7.0; type: physicochemical; conditions: buffer
[15] = tested on: Canis familiaris; assay: Antisecretory activity calculated in heidenhain-pouch dog after iv administration of the drug, values in parenthesis indicates 95% confidence limits; type: functional; conditions: Canis lupus familiaris
[16] = tested on: Canis familiaris; assay: In vivo inhibition of gastric acid secretion was calculated in heidenhain-pouch dog after iv administration of the drug at a dose of 0.3 mg/kg; type: functional; conditions: Canis lupus familiaris, Stomach
[17] = tested on: Canis familiaris; assay: Antisecretory activity calculated in heidenhain-pouch dog after id administration of the drug, value in parenthesis indicates 95% confidence limits; type: functional; conditions: Canis lupus familiaris
[18] = tested on: Canis familiaris; assay: Antisecretory activity calculated in heidenhain-pouch dog after id administration of the drug; type: functional; conditions: Canis lupus familiaris

Chain of Potassium-transporting ATPase alpha chain 1 (P19156 whole entry): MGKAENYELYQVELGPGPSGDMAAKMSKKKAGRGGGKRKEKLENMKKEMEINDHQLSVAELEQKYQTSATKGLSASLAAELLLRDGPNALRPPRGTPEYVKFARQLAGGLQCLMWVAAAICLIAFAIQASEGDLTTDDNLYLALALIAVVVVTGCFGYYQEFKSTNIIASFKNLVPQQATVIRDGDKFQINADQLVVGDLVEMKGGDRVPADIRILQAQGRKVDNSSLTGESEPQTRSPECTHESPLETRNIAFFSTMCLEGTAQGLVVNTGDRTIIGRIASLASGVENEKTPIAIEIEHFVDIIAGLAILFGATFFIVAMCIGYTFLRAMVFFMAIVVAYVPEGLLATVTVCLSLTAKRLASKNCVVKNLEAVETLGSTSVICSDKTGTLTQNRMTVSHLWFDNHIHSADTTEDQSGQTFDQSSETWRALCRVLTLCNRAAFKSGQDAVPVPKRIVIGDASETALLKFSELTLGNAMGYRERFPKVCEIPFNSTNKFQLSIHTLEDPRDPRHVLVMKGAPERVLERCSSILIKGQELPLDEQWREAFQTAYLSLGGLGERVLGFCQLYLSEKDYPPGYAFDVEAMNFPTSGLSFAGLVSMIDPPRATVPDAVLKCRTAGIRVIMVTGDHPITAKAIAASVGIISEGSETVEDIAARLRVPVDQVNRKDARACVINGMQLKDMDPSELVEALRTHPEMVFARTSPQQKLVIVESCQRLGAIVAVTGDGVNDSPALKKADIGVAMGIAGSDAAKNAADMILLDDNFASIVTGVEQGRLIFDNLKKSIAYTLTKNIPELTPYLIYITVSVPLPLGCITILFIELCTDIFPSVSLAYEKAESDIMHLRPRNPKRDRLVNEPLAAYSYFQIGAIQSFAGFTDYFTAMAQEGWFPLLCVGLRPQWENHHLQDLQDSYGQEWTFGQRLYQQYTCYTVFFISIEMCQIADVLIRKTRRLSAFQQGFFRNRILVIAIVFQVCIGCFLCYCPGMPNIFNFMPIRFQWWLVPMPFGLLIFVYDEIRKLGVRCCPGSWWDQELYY
Chain of Potassium-transporting ATPase alpha chain 1 (Sus scrofa) (P19156 whole entry, the tested form may be a part): as the sequence (P19156 whole entry) above

SMILES | IC50 ([4]; Stomach) [nM] | pKa [10] | inhibition in vivo at 0.3 mg/kg [1] [%] | inhibition in vivo at 0.5 mg/kg [3] [%] | inhibition in vivo at 1 mg/kg [5] [%] | ED50 [9] [mg/kg] | further results
COc1c(OCC(F)(F)C(F)F)ccnc1C[S+]([O-])c1nc2cscc2[nH]1 (stereo not drawn) |  |  | 58 | 79 | 47 |  | IC50 [2]: 3000 nM; IC50 [4]: 600 nM
Cc1ccnc(C[S+]([O-])c2nc3cscc3[nH]2)c1 (stereo not drawn) |  |  |  |  |  |  | inhibition in vivo at 5 mg/kg [7]: -67%; inhibition in vivo at 0.5 mg/kg [8]: 72%
COc1cccnc1C[S+]([O-])c1nc2cscc2[nH]1 (stereo not drawn) |  |  |  | 59 |  |  | IC50 [11]: 290000 nM
[O-][S+](Cc1cc(OCC(F)(F)C(F)(F)C(F)(F)F)ccn1)c1nc2cscc2[nH]1 (stereo not drawn) [SAVIPRAZOLE] | 1300 | 3.73 | 76 | 72 | 93 |  | half-life [12]: 0.05 h; half-life [13]: 1.4 h; half-life [14]: 8 h; ED50 [15]: 0.22 mg/kg
COc1c(OCC(F)(F)C(F)(F)F)ccnc1C[S+]([O-])c1nc2cscc2[nH]1 (stereo not drawn) | 1000 |  | 74 | 57 | 95 | 0.13 | half-life [12]: 0.183 h; half-life [13]: 7.8 h; half-life [14]: 23 h; ED50 [17]: 0.16 mg/kg
COc1ccc2[nH]c([S+]([O-])Cc3ncc(C)c(OC)c3C)nc2c1 (stereo not drawn) [OMEPRAZOLE] |  |  |  |  |  | 0.1 | half-life [12]: 12 h; ED50 [18]: 0.25 mg/kg; half-life [13]: 2.26 h; half-life [14]: 17 h
[O-][S+](Cc1cc(OCc2ccc(F)cc2)ccn1)c1nc2cscc2[nH]1 (stereo not drawn) |  |  |  | 85 |  |  | inhibition in vivo at 0.3 mg/kg [16]: 80%; IC50 [2]: 500 nM; IC50 [4]: 500 nM

Continued, in another order:

IC50 ([4]; Stomach) [nM] | pKa [10] | SMILES | inhibition in vivo at 0.3 mg/kg [1] [%] | inhibition in vivo at 0.5 mg/kg [3] [%] | inhibition in vivo at 1 mg/kg [5] [%] | ED50 [9] [mg/kg] | further results
230000 |  | COc1c(Cl)cnc(C[S+]([O-])c2nc3cscc3[nH]2)c1C (stereo not drawn) |  | 43 | 24 |  | inhibition [6]: -5%
81000 |  | COc1c(Br)cnc(C[S+]([O-])c2nc3cscc3[nH]2)c1C (stereo not drawn) |  | 37 |  |  | inhibition [6]: -5%
9000 | 3.26 | Cc1ccc(C[S+]([O-])c2nc3cscc3[nH]2)nc1 (stereo not drawn) | 72 | 78 |  | 0.11 | 
2500 | 3.52 | COc1c(OCC(F)(F)F)ccnc1C[S+]([O-])c1nc2cscc2[nH]1 (stereo not drawn) | 85 | 64 |  | 0.08 | IC50 [2]: 4000 nM
21000 |  | Cc1c(OCC(F)(F)F)ccnc1C[S+]([O-])c1nc2cscc2[nH]1 (stereo not drawn) |  | 56 |  |  | inhibition in vivo at 0.3 mg/kg [16]: 57%
1000 | 3.55 | COc1ccnc(C[S+]([O-])c2nc3cscc3[nH]2)c1Cl (stereo not drawn) | 82 | 71 | 36 | 0.1 | 
